This is an account of results in ChEMBL document CHEMBL1201862, “PubChem BioAssay data set” (2004).

As usually defined, the IC50 is the point on the concentration scale where inhibition reaches its midpoint. A word on the EC50: it is the concentration needed to bring the measured effect to its halfway point. As usually defined, the AC50 is the concentration at which the activity in the assay is half-maximal. A word on the CC50: it is the concentration giving 50% cytotoxicity.

The structures appear in SMILES notation. The source made the active and inactive calls.

A short description of assay [1]: cells. It is filed as functional, cell-based.
Assay [2] addresses T1, Trace amine-associated receptor 1 (Homo sapiens, UniProt Q96RJ0).
T1 sequence (Q96RJ0 whole entry): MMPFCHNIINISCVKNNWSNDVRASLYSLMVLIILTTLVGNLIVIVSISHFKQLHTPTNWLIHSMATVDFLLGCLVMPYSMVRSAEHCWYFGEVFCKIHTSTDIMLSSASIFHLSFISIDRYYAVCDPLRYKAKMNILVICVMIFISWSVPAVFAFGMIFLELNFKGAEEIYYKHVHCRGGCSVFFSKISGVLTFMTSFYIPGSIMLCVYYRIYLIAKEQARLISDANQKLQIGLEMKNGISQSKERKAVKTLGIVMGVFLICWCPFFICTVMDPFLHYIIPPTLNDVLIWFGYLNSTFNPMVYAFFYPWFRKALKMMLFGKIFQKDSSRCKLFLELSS
The experiment in a line: Counterscreen for agonists of the human trace amine associated receptor 1 (hTAAR1): Fluorescence-based cell-based high throughput dose response assay to identify hTAAR1 agonist that also desensitize TAAR1 receptor response. In kind it is functional. A general note: Counterscreens check selectivity or assay interference.

The target of assay [3] is Induced myeloid leukemia cell differentiation protein Mcl-1 (Homo sapiens, UniProt Q07820). In kind it is functional.
Sequence of Induced myeloid leukemia cell differentiation protein Mcl-1 (Q07820 whole entry): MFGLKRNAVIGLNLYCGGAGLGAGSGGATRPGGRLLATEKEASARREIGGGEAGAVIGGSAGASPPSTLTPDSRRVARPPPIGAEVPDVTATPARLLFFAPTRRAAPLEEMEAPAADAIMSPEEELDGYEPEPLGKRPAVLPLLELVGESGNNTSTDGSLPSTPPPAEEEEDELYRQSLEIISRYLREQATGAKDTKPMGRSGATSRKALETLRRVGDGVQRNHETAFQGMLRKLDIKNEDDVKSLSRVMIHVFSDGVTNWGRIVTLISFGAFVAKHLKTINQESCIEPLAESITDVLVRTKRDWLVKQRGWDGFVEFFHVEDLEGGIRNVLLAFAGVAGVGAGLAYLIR
Assay [4] concerns the target T1, Trace amine-associated receptor 1. The assay is described as follows: Fluorescence-based cell-based high throughput dose response assay to identify agonists of the human trace amine associated receptor 1 (TAAR1). It is filed as functional.
A short description of assay [5]: cells. It is filed as functional, cell-based. This is another data set of the same source.
Assay [6] in a line: bead-based luminescence quenchers, dual-tagged ARNT – biochemical, AlphaScreen, cherry-pick, artefact control for ARNT-TACC3 interaction inhibitor project, dose response (AID 651705).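 Also: AlphaScreen bead proximity signal that flags compounds interfering with the detection technology; potency reflects signal decrease which marks the compound as an assay artifact.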 In kind it is functional.
The nature of assay [7]: cells. It is filed as functional.
The next assay concerns the target Nonstructural protein 1 (Influenza A virus, UniProt Q194T2). It is filed as functional, Influenza A virus (A/California/07/2009(H1N1)).
The target in a further assay is Beta-galactosidase (Escherichia coli, UniProt Q8VNN2). The assay is described as follows: Dose response counterscreen for EBI2 assay utilizing the enzyme, b-galactosidase. In kind it is functional.
Sequence of Beta-galactosidase (Q8VNN2 whole entry): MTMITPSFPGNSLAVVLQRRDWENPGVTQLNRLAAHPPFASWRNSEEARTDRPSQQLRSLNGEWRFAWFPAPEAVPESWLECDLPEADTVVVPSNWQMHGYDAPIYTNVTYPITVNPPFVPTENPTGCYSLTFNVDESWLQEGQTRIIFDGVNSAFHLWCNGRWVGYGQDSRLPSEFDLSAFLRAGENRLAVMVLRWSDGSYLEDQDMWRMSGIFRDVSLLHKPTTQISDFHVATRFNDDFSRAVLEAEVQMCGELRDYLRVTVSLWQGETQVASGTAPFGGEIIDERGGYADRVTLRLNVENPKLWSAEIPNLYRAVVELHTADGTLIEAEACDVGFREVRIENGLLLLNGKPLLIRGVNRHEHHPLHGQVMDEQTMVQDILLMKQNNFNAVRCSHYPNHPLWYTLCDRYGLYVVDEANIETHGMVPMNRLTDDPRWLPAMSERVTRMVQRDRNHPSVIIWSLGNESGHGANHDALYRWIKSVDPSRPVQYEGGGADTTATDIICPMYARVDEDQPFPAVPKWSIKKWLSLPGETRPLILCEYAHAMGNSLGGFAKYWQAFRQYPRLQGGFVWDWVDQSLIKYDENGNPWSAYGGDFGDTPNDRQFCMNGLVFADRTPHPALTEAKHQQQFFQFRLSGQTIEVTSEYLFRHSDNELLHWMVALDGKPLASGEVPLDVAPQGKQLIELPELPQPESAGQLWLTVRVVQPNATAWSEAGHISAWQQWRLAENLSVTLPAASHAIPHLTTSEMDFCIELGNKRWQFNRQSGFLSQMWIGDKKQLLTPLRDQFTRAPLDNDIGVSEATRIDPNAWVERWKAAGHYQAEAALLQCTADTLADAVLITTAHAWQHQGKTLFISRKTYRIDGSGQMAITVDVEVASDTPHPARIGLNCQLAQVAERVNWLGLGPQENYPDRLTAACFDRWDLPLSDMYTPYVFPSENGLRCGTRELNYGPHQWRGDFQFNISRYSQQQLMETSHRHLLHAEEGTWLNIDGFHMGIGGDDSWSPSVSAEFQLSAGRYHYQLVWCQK
Assay [8] deals with T2, Caspase-3 (Homo sapiens, UniProt P42574).
T2 sequence (P42574 whole entry): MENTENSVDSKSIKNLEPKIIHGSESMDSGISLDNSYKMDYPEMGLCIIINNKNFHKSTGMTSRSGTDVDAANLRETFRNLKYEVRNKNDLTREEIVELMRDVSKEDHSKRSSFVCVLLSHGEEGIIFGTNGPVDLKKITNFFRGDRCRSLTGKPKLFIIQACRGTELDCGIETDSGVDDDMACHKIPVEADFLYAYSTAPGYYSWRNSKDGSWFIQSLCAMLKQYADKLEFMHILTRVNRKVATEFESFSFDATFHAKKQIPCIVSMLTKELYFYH
It is filed as functional.

Another assay concerns the target T3, Cysteine protease ATG4B (Homo sapiens, UniProt Q9Y4P1).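 Also: Fluorescence-based dose-response confirmation assay measuring inhibition of ATG4B activity.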
T3 sequence (Q9Y4P1 whole entry): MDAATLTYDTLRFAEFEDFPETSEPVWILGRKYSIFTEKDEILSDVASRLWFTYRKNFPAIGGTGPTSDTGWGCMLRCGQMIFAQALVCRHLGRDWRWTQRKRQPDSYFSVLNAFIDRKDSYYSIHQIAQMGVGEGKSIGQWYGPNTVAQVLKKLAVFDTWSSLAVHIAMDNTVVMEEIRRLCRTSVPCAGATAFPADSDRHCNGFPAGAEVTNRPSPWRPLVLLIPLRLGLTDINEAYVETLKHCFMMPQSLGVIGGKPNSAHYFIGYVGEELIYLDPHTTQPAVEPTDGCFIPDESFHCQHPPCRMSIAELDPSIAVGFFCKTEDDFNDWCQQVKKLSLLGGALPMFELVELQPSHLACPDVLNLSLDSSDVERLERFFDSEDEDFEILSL
In kind it is functional.

In another assay the target is Phospholipase A2 (Homo sapiens, UniProt P04054). In kind it is functional.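 Also: confirmatory dose-response counterscreen on phospholipase A2, testing hits that came from an ultra-high-throughput screen for ATG4B inhibitors.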
Sequence of Phospholipase A2 (P04054 whole entry): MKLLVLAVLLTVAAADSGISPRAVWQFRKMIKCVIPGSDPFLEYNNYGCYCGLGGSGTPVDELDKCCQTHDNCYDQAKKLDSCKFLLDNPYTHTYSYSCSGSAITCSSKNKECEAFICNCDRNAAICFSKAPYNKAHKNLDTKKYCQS
Assay [9] concerns the target T4, Sentrin-specific protease 8 (Homo sapiens, UniProt Q96LD8).
T4 sequence (Q96LD8 whole entry): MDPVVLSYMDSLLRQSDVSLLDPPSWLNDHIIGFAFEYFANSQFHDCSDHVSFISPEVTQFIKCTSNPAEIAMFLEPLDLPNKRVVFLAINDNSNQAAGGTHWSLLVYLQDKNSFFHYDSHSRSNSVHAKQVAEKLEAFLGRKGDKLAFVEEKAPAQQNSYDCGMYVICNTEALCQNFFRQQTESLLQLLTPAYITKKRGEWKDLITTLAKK
The experiment in a line: inhibition of human SENP8 cleavage activity – biochemical, luminescence, SAR follow-up (AID 504501). It is filed as functional.

Assay [10] concerns the target T4, Sentrin-specific protease 8. In kind it is functional.
Assay [11] has as its target T5, Sentrin-specific protease 6 (Homo sapiens, UniProt Q9GZR1).
T5 sequence (Q9GZR1 whole entry): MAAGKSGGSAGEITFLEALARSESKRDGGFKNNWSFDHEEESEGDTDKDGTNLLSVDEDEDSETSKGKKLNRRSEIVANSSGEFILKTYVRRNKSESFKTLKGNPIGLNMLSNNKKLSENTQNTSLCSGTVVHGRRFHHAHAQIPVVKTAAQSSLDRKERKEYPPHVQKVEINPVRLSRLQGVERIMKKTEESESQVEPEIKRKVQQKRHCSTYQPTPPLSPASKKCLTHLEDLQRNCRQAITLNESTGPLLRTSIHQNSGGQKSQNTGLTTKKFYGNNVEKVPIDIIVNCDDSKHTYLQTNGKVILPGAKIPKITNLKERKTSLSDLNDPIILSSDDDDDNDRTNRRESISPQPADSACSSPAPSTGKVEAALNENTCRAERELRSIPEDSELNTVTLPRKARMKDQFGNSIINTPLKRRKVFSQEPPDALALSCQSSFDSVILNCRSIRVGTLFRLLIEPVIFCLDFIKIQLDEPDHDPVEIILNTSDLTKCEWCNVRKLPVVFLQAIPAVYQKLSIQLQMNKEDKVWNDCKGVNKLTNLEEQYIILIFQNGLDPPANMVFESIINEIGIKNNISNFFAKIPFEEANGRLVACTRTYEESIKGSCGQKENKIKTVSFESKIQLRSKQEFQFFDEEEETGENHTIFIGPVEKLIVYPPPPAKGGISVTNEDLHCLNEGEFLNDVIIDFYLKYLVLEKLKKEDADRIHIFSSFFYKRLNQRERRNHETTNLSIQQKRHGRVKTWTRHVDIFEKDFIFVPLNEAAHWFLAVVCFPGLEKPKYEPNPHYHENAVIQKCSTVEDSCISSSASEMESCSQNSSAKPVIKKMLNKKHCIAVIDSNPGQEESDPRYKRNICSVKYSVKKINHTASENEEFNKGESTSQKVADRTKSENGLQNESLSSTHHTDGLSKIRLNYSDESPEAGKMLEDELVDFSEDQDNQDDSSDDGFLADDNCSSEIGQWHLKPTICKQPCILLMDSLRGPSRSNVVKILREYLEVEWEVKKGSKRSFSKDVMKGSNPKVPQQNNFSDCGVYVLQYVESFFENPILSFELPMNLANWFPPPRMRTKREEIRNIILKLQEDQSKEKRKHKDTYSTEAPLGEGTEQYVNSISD
It is filed as functional.

Assay [12] has as its target T6, Sentrin-specific protease 7 (Homo sapiens, UniProt Q9BQF6).
T6 sequence (Q9BQF6 whole entry): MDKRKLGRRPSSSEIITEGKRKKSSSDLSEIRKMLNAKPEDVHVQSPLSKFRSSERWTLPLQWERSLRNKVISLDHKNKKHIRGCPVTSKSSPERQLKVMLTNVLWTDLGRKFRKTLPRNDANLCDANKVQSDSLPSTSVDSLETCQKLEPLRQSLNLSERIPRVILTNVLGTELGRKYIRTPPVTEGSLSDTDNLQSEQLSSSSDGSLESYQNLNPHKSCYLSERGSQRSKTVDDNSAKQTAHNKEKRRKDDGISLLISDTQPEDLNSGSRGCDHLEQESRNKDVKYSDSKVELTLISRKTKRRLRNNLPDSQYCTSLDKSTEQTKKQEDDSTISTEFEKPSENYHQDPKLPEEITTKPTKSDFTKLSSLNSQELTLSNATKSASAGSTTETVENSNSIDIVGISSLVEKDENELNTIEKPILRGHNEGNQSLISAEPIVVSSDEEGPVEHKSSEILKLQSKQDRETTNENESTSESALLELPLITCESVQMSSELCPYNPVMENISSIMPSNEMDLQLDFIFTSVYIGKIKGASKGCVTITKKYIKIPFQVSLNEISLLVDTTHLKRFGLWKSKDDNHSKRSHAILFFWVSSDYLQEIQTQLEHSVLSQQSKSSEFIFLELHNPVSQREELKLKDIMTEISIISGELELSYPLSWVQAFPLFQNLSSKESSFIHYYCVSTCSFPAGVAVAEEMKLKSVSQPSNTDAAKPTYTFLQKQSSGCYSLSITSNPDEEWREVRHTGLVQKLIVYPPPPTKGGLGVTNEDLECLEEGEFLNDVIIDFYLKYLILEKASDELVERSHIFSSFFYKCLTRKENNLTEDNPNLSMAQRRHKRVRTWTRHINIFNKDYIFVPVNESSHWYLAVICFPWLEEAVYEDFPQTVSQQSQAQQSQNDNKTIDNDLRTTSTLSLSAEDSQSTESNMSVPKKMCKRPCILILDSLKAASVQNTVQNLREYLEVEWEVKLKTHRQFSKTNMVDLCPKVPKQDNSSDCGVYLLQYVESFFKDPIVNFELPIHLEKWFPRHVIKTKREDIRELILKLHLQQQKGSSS
The assay is described as follows: inhibition of human SENP7 cleavage activity – biochemical, luminescence, SAR follow-up (AID 504497). It is filed as functional.

Assay [13] deals with T6, Sentrin-specific protease 7. It is filed as functional.
The target in assay [14] is T2, Caspase-3. The assay is described as follows: SAR Analysis of small molecule inhibitors of Sentrin-specific proteases (SENPs) using a Caspase-3 Selectivity assay. [Related pubchem assays (depositor defined):AID2540, AID2599, AID434973, AID489001]. It is filed as functional.
Assay [15] concerns the target T5, Sentrin-specific protease 6. The experiment in a line: SAR Analysis of small molecule inhibitors of Sentrin-specific protease 6 (SENP6) using a Luminescent assay. [Related pubchem assays (depositor defined):AID2582, AID2599]. It is filed as functional.
A short description of assay [16]: viability of uninfected HEp-2 cells – cell-based, HTS, cytotoxicity control for RSV inhibitor project, dose response (AID 2410). It is filed as functional. The following applies: human respiratory syncytial virus.
Assay [17] addresses T7, Fructose-bisphosphate aldolase (Mycobacterium tuberculosis, UniProt P9WQA3).
T7 sequence (P9WQA3 whole entry): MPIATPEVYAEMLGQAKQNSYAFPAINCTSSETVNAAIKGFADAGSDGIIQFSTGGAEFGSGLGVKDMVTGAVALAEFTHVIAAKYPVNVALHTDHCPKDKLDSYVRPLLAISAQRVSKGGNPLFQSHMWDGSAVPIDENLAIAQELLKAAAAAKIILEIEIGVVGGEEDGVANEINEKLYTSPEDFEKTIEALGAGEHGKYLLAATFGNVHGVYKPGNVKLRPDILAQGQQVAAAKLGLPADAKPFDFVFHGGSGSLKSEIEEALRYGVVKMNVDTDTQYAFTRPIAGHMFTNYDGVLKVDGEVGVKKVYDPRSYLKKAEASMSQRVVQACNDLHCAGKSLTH
The assay is described as follows: Fluorescence-based biochemical high throughput dose response assay for inhibitors of the fructose-bisphosphate aldolase (FBA) of M. tuberculosis. In kind it is functional.

Sequence of Nonstructural protein 1 (Q194T2 whole entry): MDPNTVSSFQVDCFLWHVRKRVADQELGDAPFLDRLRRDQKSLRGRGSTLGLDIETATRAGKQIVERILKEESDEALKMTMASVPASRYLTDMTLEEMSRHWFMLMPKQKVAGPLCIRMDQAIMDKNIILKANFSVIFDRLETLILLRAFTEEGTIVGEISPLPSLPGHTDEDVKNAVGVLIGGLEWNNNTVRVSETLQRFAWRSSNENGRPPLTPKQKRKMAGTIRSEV

For the compound `COc1cc(C(c2nnnn2C2CCCC2)N2CCc3ccccc3C2)ccc1O` (stereo unspecified), the values for the IC50 (in the assay “cells [1]”; in [2]; in assay [3]) were > 29.9 µM (inactive), 1.33 µM (active) and 12.8 µM (active), respectively. Besides, the concentration giving a half-maximal response (EC50) is 0.496 µM (active) in assay [4] and > 29.9 µM (inactive) in the assay “cells [5]”.
Consider `COc1ccc(C(=O)Nc2nnc(C3=COCCO3)o2)cc1`, for which, in assay [6], the AC50 is 107 µM (active). Moreover, in the assay “cells [7]”, the half-inhibitory concentration (IC50) is 5.45 µM (active).
Take `c1ccc(CNCCN2CCNCC2)nc1`: on Nonstructural protein 1, the half-maximal inhibitory concentration (IC50) was 7.87 µM (active). Moreover, the half-maximal activity concentration (AC50) in assay [6] is 121 µM (active).
Regarding `COc1cc(OC)c(C(=O)OCC(=O)Nc2nnc(-c3ccccc3)o2)cc1OC`, in assay [6], the AC50 was 112 µM (active).
With `O=C(NCCc1ccccc1)c1ccc([N+](=O)[O-])cc1`, the figures for the IC50 (in “cells [1]”; in assay [2]) were > 29.9 µM (inactive) and 7.32 µM (active), respectively. The results for the EC50 (in [4]; in the assay “cells [5]”) were 2.32 µM (active) and > 29.9 µM (inactive), respectively.
With `O=C(c1cc2cc(Cl)ccc2[nH]1)N1CCN(c2ccccc2F)CC1`, the IC50 on Beta-galactosidase was > 80 µM (inactive).
Turning to `CC(C)(C)c1ccc2c(c1)C(=O)c1ccccc1C2=O`, the IC50 is > 100 µM (inactive) on Caspase-3 [8]; 9.47 µM (active) at Cysteine protease ATG4B; 6.46 µM (active) at Phospholipase A2; 1.12 µM (active) in assay [9]; > 100 µM (inactive) in assay [10]; 4.05 µM (active) in assay [11]. Moreover, the half-maximal inhibitory concentration (IC50) in assay [12] was 0.635 µM (active); in assay [13], > 100 µM (inactive); at Caspase-3 [14], 0.934 µM (active); in [15] it was 0.927 µM (active).
`COc1ccc(C2=NN(C(=O)CSc3cn(C)c4ccccc34)C(c3ccc(OC)cc3)C2)cc1` (stereo unspecified): the CC50 in assay [16] is 30.2 µM (active). The IC50 on Beta-galactosidase was > 80 µM (inactive).
Take `Cc1cc(=O)oc2cc(OCC(=O)N3CCCC3)ccc12`: in assay [17], the half-inhibitory concentration (IC50) is 2.54 µM (active).
`CC(Oc1ccc2c(c1)oc(=O)c1ccccc12)C(=O)NCCCN1CCOCC1` (stereo unspecified): the IC50 in assay [17] was 1.5 µM (active).
Regarding `N#Cc1c(O)ncc(/C=N/N=C/c2ccccc2)c1Nc1ccccc1`, the IC50 on Beta-galactosidase is > 80 µM (inactive).
`COc1ccc2cc(C(N)=O)/c(=N/c3ccccc3)oc2c1`: the IC50 in [17] was > 10 µM (inactive).
